# Like-named read-outs stand apart in the source and are kept apart here.
# Target: T1, MST1 (Homo sapiens, UniProt Q13043)
# T1 sequence (Q13043 1-487): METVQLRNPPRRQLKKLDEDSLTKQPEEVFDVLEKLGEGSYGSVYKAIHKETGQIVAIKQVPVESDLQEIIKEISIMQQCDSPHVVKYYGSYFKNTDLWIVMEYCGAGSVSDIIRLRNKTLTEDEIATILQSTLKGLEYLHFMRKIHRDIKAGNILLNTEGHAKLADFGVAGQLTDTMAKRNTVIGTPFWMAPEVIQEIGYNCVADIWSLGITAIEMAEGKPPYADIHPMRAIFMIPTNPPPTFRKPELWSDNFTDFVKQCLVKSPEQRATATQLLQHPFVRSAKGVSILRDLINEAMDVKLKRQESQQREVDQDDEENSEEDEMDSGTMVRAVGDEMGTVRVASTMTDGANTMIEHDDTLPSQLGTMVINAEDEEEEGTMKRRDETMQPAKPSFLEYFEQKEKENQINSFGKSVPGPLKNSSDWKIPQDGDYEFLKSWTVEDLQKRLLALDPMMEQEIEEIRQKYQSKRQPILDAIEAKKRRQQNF
# Experiment: In vitro measurement of MST1 inhibition (Z′-Lyte kinase assay)
# Assay type: biochemical
# [1] = 1 μM ATP, read-out: IC50 (μM) 1 μM ATP
# [2] = 50 μM ATP, read-out: IC50 (μM) 50 μM ATP
SMILES,IC50 [1],IC50 [2]
"Cc1cc(-c2cnc(N)c(-c3ccc4c(c3)OCCNC4=O)n2)ccc1S(=O)(=O)NC1CC1 [4-(5-amino-6-(5-oxo-2,3,4,5-tetrahydrobenzo[f][1,4]oxazepin-8-yl)pyrazin-2-yl)-N-cyclopropyl-2-methylbenzenesulfonamide]",< 0.05 µM,< 0.01 µM
NC(=O)c1ccc(-c2cc(-c3ccc(S(=O)(=O)NC4CC4)cc3Cl)cnc2N)cc1 [4-(2-amino-5-(2-chloro-4-(N-cyclopropylsulfamoyl)phenyl)pyridin-3-yl)benzamide],,< 0.15 µM
"Nc1ncc(-c2ccc(S(=O)(=O)NC3CC3)cc2)cc1-c1ccc2c(c1)C1(CC1)NC2=O [4-(6-amino-5-(3′-oxospiro[cyclopropane-1,1′-isoindolin]-6′-yl)pyridin-3-yl)-N-cyclopropylbenzenesulfonamide]",< 0.01 µM,< 0.01 µM
"CN(C1CC1)S(=O)(=O)c1ccc(-c2cnc(N)c(-c3ccc4c(c3)C3(CC3)NC4=O)c2)cc1 [4-(6-amino-5-(3′-oxospiro[cyclopropane-1,1′-isoindolin]-6′-yl)pyridin-3-yl)-N-cyclopropyl-N-methylbenzenesulfonamide]",< 0.01 µM,< 0.01 µM
"N#CC1(c2ccc(-c3cnc(N)c(-c4ccc5c(c4)C4(CC4)CNC5=O)c3)cc2)CCOCC1 [4-(4-(6-amino-5-(1′-oxo-2′,3′-dihydro-1′H-spiro[cyclopropane-1,4′-isoquinolin]-6′-yl)pyridin-3-yl)phenyl)tetrahydro-2H-pyran-4-carbonitrile]",< 0.01 µM,< 0.01 µM
"Cc1cc(-c2cnc(N)c(-c3ccc4c(c3)C(C)(C)CNC4=O)n2)ccc1S(=O)(=O)NC1CC1 [4-(5-amino-6-(4,4-dimethyl-1-oxo-1,2,3,4-tetrahydroisoquinolin-6-yl)pyrazin-2-yl)-N-cyclopropyl-2-methylbenzenesulfonamide]",< 0.01 µM,< 0.01 µM
"CC1(C)CNC(=O)c2ccc(-c3nc(-c4ccc(C5(C#N)CC5)cc4)cnc3N)cc21 [1-(4-(5-amino-6-(4,4-dimethyl-1-oxo-1,2,3,4-tetrahydroisoquinolin-6-yl)pyrazin-2-yl)phenyl)cyclopropanecarbonitrile]",< 0.01 µM,< 0.01 µM
"CCCC(C)NC(=O)c1nc(-c2cc(OC)c(OC)c(OC)c2)cnc1N (stereo not drawn) [3-amino-N-(pentan-2-yl)-6-(3,4,5-trimethoxyphenyl)pyrazine-2-carboxamide]",,< 0.15 µM
"Nc1ncc(-c2ccc3c(c2)CNS3(=O)=O)cc1-c1ccc2c(c1)CCNC2=O [6-(2-amino-5-(1,1-dioxido-2,3-dihydrobenzo[d]isothiazol-5-yl)pyridin-3-yl)-3,4-dihydroisoquinolin-1(2H)-one]",< 0.05 µM,< 0.01 µM
Nc1ncc(-c2ccc(C(=O)NCc3ccccc3)cc2)cc1-c1ccc(C(=O)NO)cc1 [4-(2-amino-5-(4-(benzylcarbamoyl)phenyl)pyridin-3-yl)-N-hydroxybenzamide],,< 0.15 µM
"CCCN(C)S(=O)(=O)c1ccc(-c2cnc(N)c(-c3ccc4c(c3)CCNC4=O)n2)cc1 [4-(5-amino-6-(1-oxo-1,2,3,4-tetrahydroisoquinolin-6-yl)pyrazin-2-yl)-N-methyl-N-propylbenzenesulfonamide]",< 0.01 µM,< 0.01 µM

# The remaining lines, values ahead:
IC50 [1],IC50 [2],SMILES
< 0.01 µM,< 0.01 µM,"CCN(C)S(=O)(=O)c1ccc(-c2cnc(N)c(-c3ccc4c(c3)CCNC4=O)c2)nc1 [6′-amino-N-ethyl-N-methyl-5′-(1-oxo-1,2,3,4-tetrahydroisoquinolin-6-yl)-[2,3′-bipyridine]-5-sulfonamide]"
< 0.05 µM,< 0.01 µM,"Nc1ncc(-c2ccc(S(=O)(=O)N(CC(F)(F)F)C3CCC3)cc2)cc1-c1ccc2c(c1)CCNC2=O [4-(6-amino-5-(1-oxo-1,2,3,4-tetrahydroisoquinolin-6-yl)pyridin-3-yl)-N-cyclobutyl-N-(2,2,2-trifluoroethyl)benzenesulfonamide]"
< 0.05 µM,< 0.01 µM,"CC(Oc1ccc(-c2cnc(N)c(-c3ccc4c(c3)CCNC4=O)n2)cc1)C1CC1 (stereo not drawn) [6-(3-amino-6-(4-(1-cyclopropylethoxy)phenyl)pyrazin-2-yl)-3,4-dihydroisoquinolin-1(2H)-one]"
< 0.01 µM,< 0.01 µM,"Nc1ncc(-c2ccc(S(=O)(=O)NC3CC3)cc2)nc1-c1ccc2c(c1)CCNC2=O [4-(5-amino-6-(1-oxo-1,2,3,4-tetrahydroisoquinolin-6-yl)pyrazin-2-yl)-N-cyclopropylbenzenesulfonamide]"
< 0.05 µM,< 0.01 µM,"CN(Cc1ccc(-c2cnc(N)c(-c3ccc4c(c3)CCNC4=O)c2)cc1)C1CC1 [6-(2-amino-5-(4-((cyclopropyl(methyl)amino)methyl)phenyl)pyridin-3-yl)-3,4-dihydroisoquinolin-1(2H)-one]"
< 0.01 µM,< 0.01 µM,"C[C@@H]1C[C@H]1N(C)S(=O)(=O)c1ccc(-c2cnc(N)c(-c3ccc4c(c3)CCNC4=O)n2)cc1 [4-(5-amino-6-(1-oxo-1,2,3,4-tetrahydroisoquinolin-6-yl)pyrazin-2-yl)-N-methyl-N-((1R,2R)-2-methylcyclopropyl)benzenesulfonamide]"
< 0.05 µM,< 0.01 µM,"O=C1NCCc2cc(-c3c[nH]c4ncc(-c5ccc(S(=O)(=O)NC6CC6)cc5)cc34)ccc21 [N-cyclopropyl-4-(3-(1-oxo-1,2,3,4-tetrahydroisoquinolin-6-yl)-1H-pyrrolo[2,3-b]pyridin-5-yl)benzenesulfonamide]"
< 0.01 µM,< 0.01 µM,"CC1CNc2cc(-c3nc(-c4ccc(S(=O)(=O)N(C)C5CC5)cc4)cnc3N)ccc2C(=O)N1 (stereo not drawn) [4-(5-amino-6-(3-methyl-5-oxo-2,3,4,5-tetrahydro-1H-benzo[e][1,4]diazepin-8-yl)pyrazin-2-yl)-N-cyclopropyl-N-methylbenzenesulfonamide]"
< 0.01 µM,< 0.01 µM,"CN(C1CC1)S(=O)(=O)c1ccc(-c2cnc(N)c(-c3ccc4c(c3)NCCNC4=O)n2)cc1 [4-(5-amino-6-(5-oxo-2,3,4,5-tetrahydro-1H-benzo[e][1,4]diazepin-8-yl)pyrazin-2-yl)-N-cyclopropyl-N-methylbenzenesulfonamide]"
< 0.01 µM,< 0.01 µM,"Nc1ncc(-c2ccc(S(=O)(=O)NC3CC3)c(F)c2)cc1-c1ccc2c(c1)CCNC2=O [4-(6-amino-5-(1-oxo-1,2,3,4-tetrahydroisoquinolin-6-yl)pyridin-3-yl)-N-cyclopropyl-2-fluorobenzenesulfonamide]"
< 0.05 µM,< 0.01 µM,"CN(CC(F)F)S(=O)(=O)c1ccc(-c2cnc(N)c(-c3ccc4c(c3)CCNC4=O)n2)cc1 [4-(5-amino-6-(1-oxo-1,2,3,4-tetrahydroisoquinolin-6-yl)pyrazin-2-yl)-N-(2,2-difluoroethyl)-N-methylbenzenesulfonamide]"
< 0.05 µM,< 0.01 µM,"Nc1ncc(-c2ccc(S(=O)(=O)NC3CC3)cc2)nc1-c1ccc2c(c1)C1(CC1)NC2=O [4-(5-amino-6-(3′-oxospiro[cyclopropane-1,1′-isoindolin]-6′-yl)pyrazin-2-yl)-N-cyclopropylbenzenesulfonamide]"
< 0.01 µM,< 0.01 µM,"CN(C1CC1)S(=O)(=O)c1ccc(-c2cnc(N)c(-c3cc4c(cn3)C(=O)NCC4)c2)cc1 [4-(6-amino-5-(8-oxo-5,6,7,8-tetrahydro-2,7-naphthyridin-3-yl)pyridin-3-yl)-N-cyclopropyl-N-methylbenzenesulfonamide]"

# From patent US8440652B2, “MST1 kinase inhibitors and methods of their use” (Lexicon Pharmaceuticals, Inc., priority 2011, dated 2013)
